# In US11297837B2, “Pesticidally activi mixtures comprising anthranilamide compounds” (priority 2016, dated 2022):
# Key:
# Assay type in all cases: in vivo
# [1] = system: green peach aphid (Myzus persicae); assay: Green peach aphid (Myzus persicae) control through systemic means, artificial diet in 96-well microtiter plates; settings: 2 ppm; aphid mortality and fecundity visually assessed after 3 days
# Text: For evaluating control of green peach aphid (Myzus persicae) through systemic means the test unit consisted of 96-well-microtiter plates containing liquid artificial diet under an artificial membrane.
# Different concentrations of formulated compounds or mixtures were pipetted into the aphid diet, using a custom built pipetter, at two replications.
# (§1) For experimental mixtures in these tests identical volumes of both mixing partners at the desired concentrations respectively, were mixed together.
# After application, 5-8 adult aphids were placed on the artificial membrane inside the microtiter plate wells. […] Aphid mortality and fecundity was then visually assessed.
# [2] = system: yellow fever mosquito (Aedes aegypti); assay: Yellow fever mosquito (Aedes aegypti) control, larvae in tap water in 96-well microtiter plates; settings: larval mortality visually assessed after 2 days
# Experimental: For evaluating control of yellow fever mosquito (Aedes aegypti) the test unit consisted of 96-well-microtiter plates containing 200 μl of tap water per well and 5-15 freshly hatched A. aegypti larvae.
# The compounds or mixtures were formulated using a solution containing 75% water and 25% DMSO. Different concentrations of formulated compounds or mixtures were sprayed onto the insect diet at 2.5 μl, using a custom built micro atomizer, at two replications.
# as §1
# After application, microtiter plates were incubated at 28±1° C., 80±5% RH for 2 days. Larval mortality was then visually assessed.
# [3] = system: boll weevil (Anthonomus grandis); assay: Boll weevil (Anthonomus grandis) control, insect diet with eggs in 24-well microtiter plates; settings: egg and larval mortality visually assessed after 5 days
# Experimental: For evaluating control of boll weevil the test unit consisted of 24-well-microtiter plates containing an insect diet and 20-30 A. grandis eggs.
# The compounds or mixtures were formulated using a solution containing 75% water and 25% DMSO. Different concentrations of formulated compounds or mixtures were sprayed onto the insect diet at 20 μl, using a custom built micro atomizer, at two replications.
# as §1
# After application, microtiter plates were incubated at 23+1° C., 50+5% RH for 5 days. Egg and larval mortality was then visually assessed.
smiles,measurement,setting,value
"CCN1OC[C@@H](NC(=O)c2ccc(C3=NOC(c4cc(Cl)cc(Cl)c4)(C(F)(F)F)C3)cc2C)C1=O (stereo partly drawn) [II-4.1, 4-[5-(3,5-dichlorophenyl)-5-(trifluoromethyl)-4H-isoxazol-3-yl]-N-[(4R)-2-ethyl-3-oxo-isoxazolidin-4-yl]-2-methyl-benzamide]",Average Control %,[1],0%
"Cn1nc(C(F)(F)C(F)(F)F)c(C(F)(F)F)c1C(=O)Nc1ccc(Cl)c(C(=O)NCc2ccccc2)c1 [II-1, N-[4-Chloro-3-[[(phenylmethyl)amino]carbonyl]phenyl]-1-methyl-3-(1,1,2,2,2-pentafluoroethyl)-4-(trifluoromethyl)-1H-pyrazole-5-carboxamide]",Average Control %,[2]; 20 ppm,50%
same,Average Control %,[3]; 20 ppm,0%
"CC(NC(=O)c1cc(Cl)cc(Br)c1NC(=O)c1cc(Br)nn1-c1ncccc1Cl)C1CC1 (centres unmarked) [I.2, cyclaniliprole, reference compound]",Average Control %,[2]; 2 ppm,0%
same,Average Control %,[3]; 0.08 ppm,0%
